Source: PubChem BioAssay AID330 (DTP/NCI, 2004)
“And” between values parts separate entries of the source, which are not always exact repeats. Equal values may be shown once. Toxic doses and inconclusive results are not listed. Rule for the calls: active = survival T/C of 150% or more; inactive = T/C below 125% in these data.

System: P388 leukemia ip, CD2F1 mice, survival T/C
Assay: NCI In Vivo Anticancer Drug Screen. Data for tumor model P388 Leukemia (intraperitoneal) in CD2F1 (CDF1) mice
Details: endpoint: median survival time, higher = longer survival
Outline: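 Mice carrying the transplanted tumor received test compound or vehicle. Survival was recorded in each group, and the value is the treated-group measurement divided by that of the vehicle-treated control group.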

[1] = dose: 50.0 mg/kg/injection, schedule: Q01DX009 (ip), vehicle: Klucel (hydroxypropylcellulose) (HPC)
[2] = dose: 100.0 mg/kg/injection, schedule: Q01DX009 (ip), vehicle: Klucel (hydroxypropylcellulose) (HPC)
[3] = dose: 200.0 mg/kg/injection, schedule: Q01DX009 (ip), vehicle: Klucel (hydroxypropylcellulose) (HPC)
[4] = dose: 50.0 mg/kg/injection, schedule: Q01DX009 (ip), vehicle: saline with Tween-80
[5] = dose: 100.0 mg/kg/injection, schedule: Q01DX009 (ip), vehicle: saline with Tween-80
[6] = dose: 200.0 mg/kg/injection, schedule: Q01DX009 (ip), vehicle: saline with Tween-80
[7] = dose: 200.0 mg/kg/injection, schedule: Q04DX003 (ip), vehicle: saline with Tween-80

Measured: T/C

COc1cc2c3cc1Oc1c(O)c(OC)cc4c1[C@H](Cc1ccc(cc1)Oc1cc(ccc1O)C[C@H]3N(C)CC2)N(C)CC4
inactive: dose: 1.25 mg/kg/injection, schedule: Q01DX009 (ip), vehicle: water 100 % of control | dose: 2.5 mg/kg/injection, schedule: Q01DX009 (ip), vehicle: water 101 % of control | dose: 5.0 mg/kg/injection, schedule: Q01DX009 (ip), vehicle: water 97 % of control | dose: 10.0 mg/kg/injection, schedule: Q01DX009 (ip), vehicle: water 101 % of control | dose: 20.0 mg/kg/injection, schedule: Q01DX009 (ip), vehicle: other 103 % of control | dose: 20.0 mg/kg/injection, schedule: Q01DX009 (ip), vehicle: water 94 % of control | dose: 40.0 mg/kg/injection, schedule: Q01DX009 (ip), vehicle: other 94 % of control | dose: 80.0 mg/kg/injection, schedule: Q01DX009 (ip), vehicle: other 109 % of control

O=C1OC(c2ccccc2)=N/C1=C/c1c(-c2ccccc2)c(-c2ccccc2)c2n1CCC2
inactive: dose: 50.0 mg/kg/injection, schedule: Q01DX005 (ip), vehicle: Klucel (hydroxypropylcellulose) (HPC) 86 % of control | dose: 100.0 mg/kg/injection, schedule: Q01DX005 (ip), vehicle: Klucel (hydroxypropylcellulose) (HPC) 86 % of control | dose: 200.0 mg/kg/injection, schedule: Q01DX005 (ip), vehicle: Klucel (hydroxypropylcellulose) (HPC) 86 % of control

CCOC(=O)CC1C(=O)N(c2nc(-c3ccc(Br)cc3)cs2)N=C1C (centres undefined)
inactive: [1] 96 % of control | [2] 101 % of control | [3] 103 % of control

Cn1c(O)c(N=O)c(=O)[nH]c1=O
inactive: [4] 95 % of control | [5] 99 % of control | dose: 100.0 mg/kg/injection, schedule: Q04DX002 (ip), vehicle: saline with Tween-80 100 % of control | [6] 87 % of control

CC(c1ccccc1)C1CCN(C)CC1 (centres undefined)
inactive: dose: 12.5 mg/kg/injection, schedule: Q04DX002 (ip), vehicle: saline 99 % of control | dose: 25.0 mg/kg/injection, schedule: Q04DX002 (ip), vehicle: saline 100 % of control

O=C1c2ccncc2C(=O)c2c1[nH]c1ccccc21
inactive: dose: 7.5 mg/kg/injection, schedule: Q04DX002 (ip), vehicle: Klucel (hydroxypropylcellulose) (HPC) 97 % of control | dose: 15.0 mg/kg/injection, schedule: Q04DX002 (ip), vehicle: Klucel (hydroxypropylcellulose) (HPC) 95 % of control | dose: 30.0 mg/kg/injection, schedule: Q04DX002 (ip), vehicle: Klucel (hydroxypropylcellulose) (HPC) 90 % of control and 97 % of control | dose: 60.0 mg/kg/injection, schedule: Q04DX002 (ip), vehicle: Klucel (hydroxypropylcellulose) (HPC) 95 % of control

CCOP(=Nc1cc(C)ccc1C)(OCC)OCC
inactive: dose: 12.5 mg/kg/injection, schedule: Q01DX009 (ip), vehicle: Klucel (hydroxypropylcellulose) (HPC) 100 % of control | dose: 25.0 mg/kg/injection, schedule: Q01DX009 (ip), vehicle: Klucel (hydroxypropylcellulose) (HPC) 94 % of control | dose: 50.0 mg/kg/injection, schedule: Q01DX001 (ip), vehicle: Klucel (hydroxypropylcellulose) (HPC) 103 % of control | [1] 103 % of control and 93 % of control | dose: 100.0 mg/kg/injection, schedule: Q01DX001 (ip), vehicle: Klucel (hydroxypropylcellulose) (HPC) 100 % of control | dose: 200.0 mg/kg/injection, schedule: Q01DX001 (ip), vehicle: Klucel (hydroxypropylcellulose) (HPC) 96 % of control

CCOc1ccc(/C=N/NS(=O)(=O)c2ccccc2)cc1OC
inactive: dose: 100.0 mg/kg/injection, schedule: Q04DX003 (ip), vehicle: saline with Tween-80 100 % of control | [7] 95 % of control | dose: 400.0 mg/kg/injection, schedule: Q04DX003 (ip), vehicle: saline with Tween-80 100 % of control

Cc1cc2c(c3ncccc13)OCN(Cc1ccc(Cl)cc1)C2
inactive: [4] 94 % of control | [5] 95 % of control | [6] 94 % of control

CC(C1CC2(C)OC2(CO)C(=O)O1)C1CCC2C3CC4OC45C(O)C4OC4C(=O)C5(C)C3CCC12C (centres undefined)
inactive: dose: 5.0 mg/kg/injection, schedule: Q01DX005 (ip), vehicle: Klucel (hydroxypropylcellulose) (HPC) 96 % of control | dose: 10.0 mg/kg/injection, schedule: Q01DX005 (ip), vehicle: Klucel (hydroxypropylcellulose) (HPC) 100 % of control | dose: 20.0 mg/kg/injection, schedule: Q01DX005 (ip), vehicle: Klucel (hydroxypropylcellulose) (HPC) 96 % of control | dose: 40.0 mg/kg/injection, schedule: Q01DX005 (ip), vehicle: Klucel (hydroxypropylcellulose) (HPC) 92 % of control | dose: 80.0 mg/kg/injection, schedule: Q01DX005 (ip), vehicle: Klucel (hydroxypropylcellulose) (HPC) 89 % of control

ClC(Cl)(Cl)C(Cl)(Cl)c1ccc(C(Cl)(Cl)C(Cl)(Cl)Cl)cc1
inactive: dose: 132.0 mg/kg/injection, schedule: Q04DX003 (ip), vehicle: saline with Tween-80 100 % of control | [7] 100 % of control | dose: 300.0 mg/kg/injection, schedule: Q04DX003 (ip), vehicle: saline with Tween-80 100 % of control

CC(C)(C)NC(=O)Nc1cccc(C(=O)O)c1
inactive: dose: 60.0 mg/kg/injection, schedule: Q01DX005 (ip), vehicle: saline with Tween-80 99 % of control | dose: 120.0 mg/kg/injection, schedule: Q01DX005 (ip), vehicle: saline with Tween-80 96 % of control | dose: 240.0 mg/kg/injection, schedule: Q01DX005 (ip), vehicle: saline with Tween-80 105 % of control

COc1ccccc1N1C(=O)C(=O)C(C(C)=O)C1=O (centres undefined)
inactive: [1] 107 % of control | [2] 106 % of control | [3] 108 % of control

C[Si](C)(c1ccc(Cl)cc1)c1ccc(Cl)cc1
inactive: dose: 50.0 mg/kg/injection, schedule: Q01DX009 (ip), vehicle: saline 97 % of control | dose: 100.0 mg/kg/injection, schedule: Q01DX009 (ip), vehicle: saline 100 % of control | dose: 200.0 mg/kg/injection, schedule: Q01DX009 (ip), vehicle: saline 99 % of control

O=C1CC2(CCc3ccccc32)C(=O)N1CCN1CCOCC1 (centres undefined)
inactive: dose: 50.0 mg/kg/injection, schedule: Q01DX005 (ip), vehicle: saline with Tween-80 100 % of control | dose: 100.0 mg/kg/injection, schedule: Q01DX005 (ip), vehicle: saline with Tween-80 95 % of control | dose: 200.0 mg/kg/injection, schedule: Q01DX005 (ip), vehicle: saline with Tween-80 105 % of control

CC(=O)Nc1cc2cc(NC=C(C#N)C#N)ccc2oc1=O
inactive: dose: 60.0 mg/kg/injection, schedule: Q01DX005 (ip), vehicle: Klucel + Tween-80 96 % of control | dose: 120.0 mg/kg/injection, schedule: Q01DX005 (ip), vehicle: Klucel + Tween-80 92 % of control

CC(/C=N\Nc1ccc(Cl)cc1)=N/NC(N)=S
inactive: dose: 100.0 mg/kg/injection, schedule: Q04DX002 (ip), vehicle: saline 99 % of control | dose: 200.0 mg/kg/injection, schedule: Q04DX002 (ip), vehicle: saline 98 % of control

O=CN1CCc2cc3c(cc2C1Cc1cc2c(cc1Br)OCO2)OCO3 (centres undefined)
inactive: dose: 25.0 mg/kg/injection, schedule: Q01DX001 (ip), vehicle: saline + alcohol 99 % of control | dose: 50.0 mg/kg/injection, schedule: Q01DX001 (ip), vehicle: saline + alcohol 103 % of control | dose: 100.0 mg/kg/injection, schedule: Q01DX001 (ip), vehicle: saline + alcohol 100 % of control

COC(=O)C12OCC34C(CC5C(C)=C(O)C(=O)CC5(C)C3C(O)C1O)OC(=O)C(OC(=O)C=C(C)C)C24 (centres undefined)
inactive: dose: 0.13 mg/kg/injection, schedule: Q01DX009 (ip), vehicle: saline 100 % of control | dose: 0.25 mg/kg/injection, schedule: Q01DX009 (ip), vehicle: saline 100 % of control | dose: 0.5 mg/kg/injection, schedule: Q01DX009 (ip), vehicle: saline 96 % of control | dose: 2.0 mg/kg/injection, schedule: Q01DX009 (ip), vehicle: saline 98 % of control | dose: 4.0 mg/kg/injection, schedule: Q01DX009 (ip), vehicle: saline 100 % of control | dose: 125.0 micrograms/kg/injection, schedule: Q01DX009 (ip), vehicle: saline + alcohol 104 % of control | dose: 250.0 micrograms/kg/injection, schedule: Q01DX009 (ip), vehicle: saline + alcohol 102 % of control | dose: 500.0 micrograms/kg/injection, schedule: Q01DX009 (ip), vehicle: saline + alcohol 104 % of control | dose: 1000.0 micrograms/kg/injection, schedule: Q01DX009 (ip), vehicle: saline + alcohol 95 % of control | dose: 2000.0 micrograms/kg/injection, schedule: Q01DX009 (ip), vehicle: saline + alcohol 93 % of control | dose: 4000.0 micrograms/kg/injection, schedule: Q01DX009 (ip), vehicle: saline + alcohol 102 % of control
